Source: patent US8383838B2, “5-oxo-2,3,4,5-tetrahydro-benzo[b]oxepine-4-carboxylic acid amides and 2,3-dihydro-benzo[b]oxepine-4-carboxylic acid amides for treatment and prevention of diabetes typ 1 and 2” (Merck Patent Gesellschaft mit Beschränkter Haftung, priority 2008, dated 2013)

Target: T1, human GK (Homo sapiens, UniProt P35557)
T1 sequence (P35557 1-465): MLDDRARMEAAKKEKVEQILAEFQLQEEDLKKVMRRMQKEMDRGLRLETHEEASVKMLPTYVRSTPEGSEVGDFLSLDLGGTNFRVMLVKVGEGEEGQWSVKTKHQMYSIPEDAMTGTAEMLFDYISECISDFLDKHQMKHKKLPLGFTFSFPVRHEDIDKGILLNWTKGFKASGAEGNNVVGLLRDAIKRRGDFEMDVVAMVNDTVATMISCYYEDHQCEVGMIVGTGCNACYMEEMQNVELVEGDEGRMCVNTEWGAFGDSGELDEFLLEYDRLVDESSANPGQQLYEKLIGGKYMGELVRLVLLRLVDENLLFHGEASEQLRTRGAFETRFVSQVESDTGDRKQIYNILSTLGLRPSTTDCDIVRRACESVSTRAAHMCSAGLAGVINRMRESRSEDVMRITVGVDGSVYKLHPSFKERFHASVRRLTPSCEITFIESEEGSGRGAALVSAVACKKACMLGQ
Assay: Glucokinase Activation Screening Assay (coupled enzyme assay with PK and LDH)
Type: biochemical
Conditions: activation of human GK in percent of control (control incubation: 2 mM glucose, 0.91% DMSO); compound concentration not stated
Experimental: Glucokinase Activation Screening Assay
GK activity (human or rat enzyme) is measured by a coupled enzyme assay using pyruvate kinase (PK) and lactate dehydrogenase (LDH) as coupling enzymes. GK activity is calculated from the decline in NADH monitored photometrically with a microtiter plate (MTP) reader at 340 nm.
For screening purposes, the GK assay is routinely run in a 384-MTP format, in a total volume of 33 μl/well. 10 μl of the ATP-regeneration solution (in HEPES-buffer*, pH 7.0, 6.73 U/ml pyruvate kinase, 6.8 U/ml lactate dehydrogenase) and 10 μl of the glucokinase-/glucose solution (15 μg/ml, 6.6 mM glucose in HEPES-buffer*, pH 7.0; the concentration of the glucose stock-solution was 660 mM in Millipore H2O) were mixed together with […] of a 10% DMSO solution (in HEPES-buffer*, pH 7.0) containing 3.3-fold the amounts of the compounds to achieve final compound concentrations in the range between 1 nM to 30 μM (sometimes 300 μM) in the assay solution (s. below). The solutions were mixed for 5 sec, and after a centrifugation at 243×g for 5 min, the solutions were preincubated for 25 min at room temperature.
The reaction was started by the addition of 10 μl of the NADH-/ATP-solution (4.29 mM NADH, 4.95 mM ATP, in HEPES-buffer*). The MTP was shaken for 5 sec., and then, the absorbance at 340 nm was monitored continuously in a MTP-reader (TECAN Spectro fluor plus) for the next 27 min (with a MTP-cycling time of 199 sec.). The final concentrations of the various components were as follows: 49.5 mM Hepes, pH 7.0, 1.49 mM PEP, 1,3 mM NADH, 49.5 mM KCl, 4.96 mM MgCl2, 1.5 mM Mg-ATP, 1.98 mM DTT, 2.04 U/ml pyruvate kinase, 2.06 U/ml lactate-dehydrogenase, 0.91% DMSO, 0.15 μg/well glucokinase, and test compounds in the range between 1 nM and 300 μM.
The change in the optical density (ΔOD340 nm) in the presence of the compound was expressed relative to the ΔOD340 nm, ctrl of the control incubation (in the presence of 2 mM glucose and 0.91% DMSO), taking into account the optical density of the blank sample (incubation in the absence of 2 mM glucose). For the determination of the half maximal effective concentration (EC50), the %-Ctrl-values were plotted in a semi-logarithmic graph against the conc. of the compound of interest. The data points were fitted to a sigmoid curve function (f(x)=((%-Ctrlmax−%-Ctrlmin)/(1−(EC50/x **^n(Hill)))+%-Ctrlmin)) by a non-linear regression analysis.
* Hepes-buffer (50 mM Hepes, pH 7.0, 5 mM MgCl2, 50 mM KCl, 1.5 mM PEP, 0.1% BSA). DTT was added to the Hepes-buffer from a 200X stock solution (in Millipore H2O) freshly each day. The final concentration of DTT in the Hepes-buffer is 2 mM.

With `O=C(Nc1ccccn1)C1CCOc2cc(Cl)c(Cl)cc2C1=O` (stereo not drawn) [Compound 1, 7,8-Dichloro-5-oxo-2,3,4,5-tetrahydro-benzo[b]oxepine-4-carboxylic acid pyridine-2-ylamide] as the molecule, how does the “hGK % CTL” value read?
The value was 312 % CTL.

Which “hGK % CTL” value does the source give for `O=C(Nc1nccs1)C1CCOc2cc(F)ccc2C1=O` (stereo not drawn) [Compound 2, 8-Fluoro-5-oxo-2,3,4,5-tetrahydro-benzo[b]oxepine-4-carboxylic acid thiazol-2-ylamide] here?
Its value is 218 % CTL.

For `CCc1ccc2c(c1)OCCC(C(=O)Nc1ccccn1)C2=O` (stereo not drawn) [Compound 3, 8-Ethyl-5-oxo-2,3,4,5-tetrahydro-benzo[b]oxepine-4-carboxylic acid pyridine-2-ylamide], which “hGK % CTL” value is on record?
The value was 291 % CTL.

`O=C(Nc1ccccn1)C1=Cc2ccccc2OCC1` [Compound 4, 2,3-Dihydro-benzo[b]oxepine-4-carboxylic acid pyridin-2-ylamide] was tested. Which “hGK % CTL” value did it give?
The value was 129 % CTL.

For `O=C(Nc1ccccn1)C1CCOc2cc(Cl)ccc2C1=O` (stereo not drawn) [Compound 5, 8-Chloro-5-oxo-2,3,4,5-tetrahydro-benzo[b]oxepine-4-carboxylic acid pyridin-2-ylamide], which “hGK % CTL” value is on record?
Its value is 388 % CTL.

Which “hGK % CTL” value does the source give for `O=C(Nc1ccccn1)C1CCOc2ccccc2C1=O` (stereo not drawn) [Compound 6, 5-Oxo-2,3,4,5-tetrahydro-benzo[b]oxepine-4-carboxylic acid pyridin-2-ylamide] here?
Its value is 245 % CTL.

`O=C(Nc1nccs1)C1CCOc2cc(Cl)ccc2C1=O` (stereo not drawn) [Compound 7, 8-Chloro-5-oxo-2,3,4,5-tetrahydro-benzo[b]oxepine-4-carboxylic acid thiazol-2-ylamide] was tested. Which “hGK % CTL” value did it give?
The value was 215 % CTL.

How did the “hGK % CTL” value turn out when `O=C(Nc1nccs1)C1CCOc2cc(Cl)c(Cl)cc2C1=O` (stereo not drawn) [Compound 8, 7,8-Dichloro-5-oxo-2,3,4,5-tetrahydro-benzo[b]oxepine-4-carboxylic acid thiazol-2-ylamide] was run?
Its value is 194 % CTL.

`CCc1ccc2c(c1)OCCC(C(=O)Nc1nccs1)C2=O` (stereo not drawn) [Compound 9, 8-Ethyl-5-oxo-2,3,4,5-tetrahydro-benzo[b]oxepine-4-carboxylic acid thiazol-2-ylamide] was tested. Which “hGK % CTL” value did it give?
Its value is 207 % CTL.

For `O=C(Nc1ccccn1)C1CCOc2ccc(Cl)cc2C1=O` (stereo not drawn) [Compound 10, 7-Chloro-5-oxo-2,3,4,5-tetrahydro-benzo[b]oxepine-4-carboxylic acid pyridin-2-ylamide], which “hGK % CTL” value is on record?
Its value is 192 % CTL.

For `O=C(Nc1nccs1)C1CCOc2ccc(Cl)cc2C1=O` (stereo not drawn) [Compound 11, 7-Chloro-5-oxo-2,3,4,5-tetrahydro-benzo[b]oxepine-4-carboxylic acid thiazol-2-ylamide], which “hGK % CTL” value is on record?
The value was 121 % CTL.

`COc1ccc2c(c1)C(=O)C(C(=O)Nc1ccccn1)CCO2` (stereo not drawn) [Compound 12, 7-Methoxy-5-oxo-2,3,4,5-tetrahydro-benzo[b]oxepine-4-carboxylic acid pyridin-2-ylamide] was tested. Which “hGK % CTL” value did it give?
Its value is 149 % CTL.

For `CC1(C)COc2cc(-c3ccc(F)cc3)ccc2C(=O)C1C(=O)Nc1ccccn1` (stereo not drawn) [Compound 13, 8-(4-Fluoro-phenyl)-3,3-dimethyl-5-oxo-2,3,4,5-tetrahydro-benzo[b]oxepine-4-carboxylic acid pyridin-2-ylamide], which “hGK % CTL” value is on record?
Its value is 124 % CTL.

For `O=C(Nc1nccs1)C1CCOc2ccccc2C1=O` (stereo not drawn) [Compound 14, 5-Oxo-2,3,4,5-tetrahydro-benzo[b]oxepine-4-carboxylic acid thiazol-2-ylamide], which “hGK % CTL” value is on record?
The value was 115 % CTL.

How did the “hGK % CTL” value turn out when `O=C(Nc1ccccn1)C1CCOc2ccc(Oc3ccccc3)cc2C1=O` (stereo not drawn) [Compound 15, 5-Oxo-7-phenoxy-2,3,4,5-tetrahydro-benzo[b]oxepine-4-carboxylic acid pyridin-2-ylamide] was run?
The value was 94 % CTL.

How did the “hGK % CTL” value turn out when `CC1(C)COc2cc(Cl)c(F)cc2C(=O)C1C(=O)Nc1ccccn1` (stereo not drawn) [Compound 16, 8-Chloro-7-fluoro-3,3-dimethyl-5-oxo-2,3,4,5-tetrahydro-benzo[b]oxepine-4-carboxylic acid pyridin-2-ylamide] was run?
Its value is 181 % CTL.

How did the “hGK % CTL” value turn out when `CCc1ccc2c(c1)OCC(C)(C)C(C(=O)Nc1ccccn1)C2=O` (stereo not drawn) [Compound 17, 8-Ethyl-3,3-dimethyl-5-oxo-2,3,4,5-tetrahydro-benzo[b]oxepine-4-carboxylic acid pyridin-2-ylamide] was run?
Its value is 104 % CTL.

With `O=C(Nc1nccs1)C1=Cc2ccccc2OCC1` [Compound 18, 2,3-Dihydro-benzo[b]oxepine-4-carboxylic acid thiazol-2-ylamide] as the molecule, how does the “hGK % CTL” value read?
Its value is 161 % CTL.
